The term Km denotes the concentration of substrate that gives half-maximal velocity. For orientation: pKi means the negative decadic logarithm of the Ki, by convention in mol/L. Low values mean a high Ki, high ones a low Ki.

pKi: −log10 of the molar value.

The values that follow come from ChEMBL document CHEMBL1123160, “(1-Amino-2-propenyl) phosphonic acid, an inhibitor of alanine racemase and D-alanine:D-alanine ligase” (J Med Chem, 1986).

The subject of one assay is Enterococcus faecalis. In words: (§1) The compound was tested for the inhibition of D-alanine:D-alanine ligase from streptococcus faecalis.
Assay [1] can be described thus: as §1. The arrangement: species or system Enterococcus faecalis.

On to `C=CC(N)P(=O)(O)O` (configuration not stated), for which the Km with Enterococcus faecalis came to 7 mM. In assay [1], this compound had a pKi of 2.30.
